Entries after “also recorded” stand apart in the source; their conditions may differ.
Experiments:
[1] = tested on: Angelman syndrome (AS) mice; test: Hindlimb Clasping test in AS mice; type: in vivo, mouse
Method: Animal handling and experimental use strictly followed NIH guidelines and protocols approved by the local Institutional Animal Care and Use Committee (IACUC) of Brown University. In all experiments, Mice were age and gender-matched. Multiple liters were used for all experiments. Weaned mice, housed in groups of two to four per cage, were maintained on a 12-h light/dark cycle with food and water ad libitum.
(§1) ESRβ agonist AC-186 treatment in vivo. 10 mg/kg AC-186 was daily IP delivered after dissolved at high concentration (30 mg/ml) in DMSO and further diluted in 20% PEG300. Vehicle groups received the same volume and concentration of diluted DMSO in 20% PEG300. Treatment started at P13 and continued until mice were sacrificed at P42.
The Hindlimb Clasping test, which was administered as delineated in a prior study, Guyenet et al., 2010 (A simple composite phenotype scoring system for evaluating 10 mouse models of cerebellar ataxia. J Vis Exp.), is a neurological evaluation that involves the temporary suspension of mice to observe their hindlimb reflexes, a reliable indicator of central nervous system pathology. This method involves a 10-second observation period during which the mice's hindlimb positions are closely monitored and scored. […]

[2] = tested on: iOPCs treated with siUBE3A; test: EdU nuclear incorporation in iOPCs treated with siUBE3A; type: cell-based, human; conditions: siUBE3A plus AC-186 at 10 μM for 24 hours
Method: The siRNAs targeting UBE3A (Thermo Fisher, #4390815 and #4390816), estrogen receptors (Thermo Scientific #145909 for ESRβ, #145539 for ESRα, and #4390824 for GPER), and negative control (Thermo Scientific, #AM4615) were obtained commercially. The 10-20 nM final concentration was used with Lipofectamine RNAiMAX transfection reagent (Thermo Scientific #13778075) and incubated for at least 48 hours before the treatments of therapeutic compounds or other reagents.
The EdU labeling kit from ThermoFisher Scientific (#C10637) was used to trace cell proliferation by incubating iOPCs with 2 μM EdU for three hours before fixation. Following EdU incorporation, cells were fixed in 4% paraformaldehyde, blocked with normal serum, and stained with primary antibodies, Rabbit anti-Ki67 and Mouse anti-UBE3A. These steps were conducted according to the manual of the labeling kit and also detailed immunofluorescence staining protocols described below, to ensure specific detection of the proliferation marker Ki67 and the ubiquitin-protein ligase UBE3A in the cells for subsequent imaging analysis.
For immunofluorescence with fixed cells in vitro, cultured cells were fixed in 4% PFA for 15 min at 37° C. followed by 0.25% TritonX-100 in PBS for 10 min at RT. Cells were blocked with 2% normal goat/donkey serum in PBS for 1 hour at RT. […]

[3] = rodents and dogs; cited from earlier work
[4] = tested on: Angelman syndrome (AS) mice; test: Immunofluorescence histopathology of brain sections after treatment (oligodendroglia, myelination, ESRβ, UBE3A); type: in vivo, mouse
Method: For immunofluorescence with brain tissue sections, mice were sacrificed under deep anesthesia using Xylazine (10 mg/kg body weight) and Ketamine (100 mg/kg body weight) and perfused through the left cardiac ventricle with ice-cold phosphate-buffered saline (PBS) followed by 4% paraformaldehyde (PFA) in PBS. Whole brains were removed and post-fixed in 4% PFA overnight at 4° C. followed by sequential immersion in 15% and 30% sucrose for cryoprotection. The brain was then dissected and 25 μm coronal sections were prepared with a Cryostat Leica. Sections collected on the charged microscope slides (Globe Scientific #1354W) were processed for immunohistochemical staining as follows. In brief, tissue sections were blocked for 1 hour at room temperature (RT) in 5% goat/donkey serum (G/DS) with 0.3% Triton-X100 in 0.1 M phosphate buffer (0.3% PBST). After blocking, tissue sections were incubated in primary antibody diluted in blocking solution overnight at 4° C. The following day, sections were briefly washed 3 times for 5 min each at RT in PBS followed by incubation with secondary antibodies diluted in blocking solution for 2 hours at RT. Sections were then briefly washed 3 times for 5 min each at RT in PBS and mounted using EMS Shield Mount with Dabco (Electron Microscopy Sciences, #17985-200) mounting media with 4′,6-diamidino-2-phenylindole (DAPI) (Vector Laboratories, #H-1200) to stain cell nuclei.
For the purpose of imaging brain sections, we utilized both the BioTek Lionheart FX Automated Microscope and the Zeiss LSM 880 confocal laser-scanning microscope. The subsequent image analysis and quantification were conducted using NIH ImageJ software, employing the particle and intensity analysis macro for detailed examination. Channels were separated, and images from various experimental groups were thresholded uniformly to identify individual cells. In each brain, 20-30 cells were outlined for analysis. To determine the extent of colocalization, we applied the Zeiss ZEN Microscopy Software's colocalization coefficient analysis tool, which allowed for precise measurement of overlapping signals within the selected cells.
To assess the levels of UBE3A protein within oligodendroglial cells, dual immunofluorescent staining was conducted. This involved the use of a UBE3A antibody sourced from Santa Cruz Biotechnology (sc-10294) and an Olig2 antibody provided by Aves Labs (#OLIG2-0020). The corresponding secondary antibodies were tagged with Alexa 647 and Alexa 488 fluorophores. These procedures were applied to coronal brain sections harvested from postnatal days 7-10, 30, and 42 from both control and Angelman Syndrome (AS) mice. We utilized a 20× objective on a GENS microscope to capture confocal images of UBE3A and Olig2 expression. Subsequent analysis was performed using NIH ImageJ software, where fluorescence intensities, denoted in arbitrary units (a.u.), were measured to determine the relative quantities of UBE3A protein. The quantification process involved delineating areas of interest around Olig2-positive cells. Quantitative analysis of ESR2 and MBP proteins was carried out using a similar method.
as §1

[5] = corpus callosum, AS mice vs AS saline
[6] = corpus callosum, AS mice vs AS vehicle
[7] = cortex, hippocampus, and fimbria, AS mice vs AS saline

Question: For `Oc1ccc(C2(c3ccccc3F)CCC(F)(F)CC2)cc1` [AC-186], which Hindlimb clasping score ([1]; AS mice, 10 mg/kg daily IP from P13-14, vs AS vehicle, 10 mg/kg) is on record?
Answer: The Hindlimb clasping score was “significantly alleviated neurological symptoms; also recorded: decreased”.

Question: What about the Hindlimb clasping score ([1]; wildtype mice, 10 mg/kg daily IP) of the same compound?
Answer: Its Hindlimb clasping score is “without affecting wildtype mice”.

Question: What about the EdU staining [2] of the same compound?
Answer: The EdU staining was “increased EdU staining”.

Question: What about the bioavailability [3] of the same compound?
Answer: The bioavailability was “satisfactory bioavailability; also recorded: effective bioavailability”.

Question: And the UBE3A intensity ([4]; AS mice vs AS saline)?
Answer: Its UBE3A intensity is “did not modify; also recorded: comparable”.

Question: What about the “oligodendrocyte populations and myelination” value ([4]; AS mouse brains) of the same compound?
Answer: Its value is “notably restored”.

Question: What about the “ESRβ intensity in Olig2-positive and O4-positive cells” value [4, 5] of the same compound?
Answer: Its value is “slightly increased; also recorded: increased”.

Question: And the “O4-positive cells/mm^2” value [4, 5]?
Answer: The value was “increased”.

Question: And the “Olig2-positive cells/mm^2” value [4, 5]?
Answer: Its value is “increased”.

Question: And the “OPC density (PDGFRa-positive cells per square millimeter)” value [4, 6]?
Answer: Its value is “increased”.

Question: And the “proliferating OPCs (Ki67 and PDGFRa dual positive, proportion of total OPCs)” value [4, 6]?
Answer: Its value is “increased”.

Question: What about the MBP intensity [4, 7] of the same compound?
Answer: The MBP intensity was “increased”.

Question: What about the O4-positive cell density [4, 7] of the same compound?
Answer: Its O4-positive cell density is “increased”.

Question: And the Olig2-positive cell density [4, 7]?
Answer: The Olig2-positive cell density was “increased”.

Question: What about the “oligodendrocyte populations and myelination” value ([4]; wildtype mice) of the same compound?
Answer: The value was “no impact”.
